According to ChEMBL document CHEMBL5335767, “Synthesis and study of new siderophore analog-ciprofloxacin conjugates with antibiotic activities against Pseudomonas aeruginosa and Burkholderia spp” (Eur J Med Chem, 2023):
≈ marks a conversion by molar mass, not a printed value.

Legend:
[1] = test system: Pseudomonas aeruginosa; assay: Antibacterial activity against Pseudomonas aeruginosa PAO1 under muller hinton medium by CLSI protocol based microdilution method; type: functional
[2] = test system: Burkholderia pseudomallei; assay: Antibacterial activity against Burkholderia pseudomallei BPS2020IRBA005 under muller hinton medium by CLSI protocol based microdilution method; type: functional
[3] = test system: Pseudomonas aeruginosa; assay: Antibacterial activity against Pseudomonas aeruginosa AM85 under succinate minimum medium by CLSI protocol based microdilution method; type: functional
[4] = test system: Burkholderia pseudomallei; assay: Antibacterial activity against Burkholderia pseudomallei BPS2020IRBA003 under succinate minimum medium by CLSI protocol based microdilution method; type: functional
[5] = test system: Burkholderia thailandensis; assay: Antibacterial activity against Burkholderia thailandensis E264TS32C47 under 1 uM FeCl3 medium by CLSI protocol based microdilution method; type: functional
[6] = test system: Burkholderia thailandensis; assay: Antibacterial activity against Burkholderia thailandensis E264TS32C47 under muller hinton medium by CLSI protocol based microdilution method; type: functional
[7] = test system: Burkholderia thailandensis; assay: Antibacterial activity against Burkholderia thailandensis E264TS32C12 under 1 uM FeCl3 medium by CLSI protocol based microdilution method; type: functional
[8] = test system: Lipid bilayer; assay: Binding affinity to bacterial inner membrane mimic PE/PG/CL/PC (60:20:10:10) assessed as maximum insertion pressure
[9] = test system: Burkholderia pseudomallei; assay: Antibacterial activity against Burkholderia pseudomallei BPS2020IRBA001 under succinate minimum medium by CLSI protocol based microdilution method; type: functional
[10] = test system: Burkholderia pseudomallei; assay: Antibacterial activity against Burkholderia pseudomallei BPS2020IRBA002 under succinate minimum medium by CLSI protocol based microdilution method; type: functional
[11] = test system: HepG2; assay: Cytotoxicity against human HepG2 cells at 28 ug/ml after 48 hrs by CellTiter-Glo luminescent cell viability assay; type: toxicity, cell-based; conditions: hepg2, 48 h, dose 28 µg/ml
[12] = test system: Pseudomonas aeruginosa; assay: Antibacterial activity against Pseudomonas aeruginosa PAD07 under succinate minimum medium by CLSI protocol based microdilution method; type: functional
[13] = test system: Pseudomonas aeruginosa; assay: Antibacterial activity against Pseudomonas aeruginosa PAD07 under 1 uM FeCl3 medium by CLSI protocol based microdilution method; type: functional
[14] = test system: Burkholderia pseudomallei; assay: Antibacterial activity against Burkholderia pseudomallei BPS2020IRBA004 under muller hinton medium by CLSI protocol based microdilution method; type: functional
[15] = test system: Pseudomonas aeruginosa; assay: Antibacterial activity against Pseudomonas aeruginosa PAO1 under 1 uM FeCl3 medium by CLSI protocol based microdilution method; type: functional
[16] = test system: Burkholderia pseudomallei; assay: Antibacterial activity against Burkholderia pseudomallei BPS2020IRBA001 under muller hinton medium by CLSI protocol based microdilution method; type: functional
[17] = Stability in aqueous solution assessed as half life; type: physicochemical
[18] = test system: Burkholderia thailandensis; assay: Antibacterial activity against Burkholderia thailandensis E264TS32C47 under succinate minimum medium by CLSI protocol based microdilution method; type: functional
[19] = test system: Pseudomonas aeruginosa; assay: Antibacterial activity against Pseudomonas aeruginosa PAD07 under muller hinton medium by CLSI protocol based microdilution method; type: functional
[20] = test system: Pseudomonas aeruginosa; assay: Antibacterial activity against Pseudomonas aeruginosa PAO1 under succinate minimum medium by CLSI protocol based microdilution method; type: functional
[21] = test system: Burkholderia thailandensis; assay: Antibacterial activity against Burkholderia thailandensis E264 under 1 uM FeCl3 medium by CLSI protocol based microdilution method; type: functional
[22] = test system: Burkholderia thailandensis; assay: Antibacterial activity against Burkholderia thailandensis E264TS32C10 under muller hinton medium by CLSI protocol based microdilution method; type: functional
[23] = test system: Pseudomonas aeruginosa; assay: Antibacterial activity against Pseudomonas aeruginosa AM85 under muller hinton medium by CLSI protocol based microdilution method; type: functional
[24] = test system: Burkholderia thailandensis; assay: Antibacterial activity against Burkholderia thailandensis E264TS32C10 under 1 uM FeCl3 medium by CLSI protocol based microdilution method; type: functional
[25] = Antibacterial activity against Burkholderia pseudomallei BPS2020IRBA005 under 1 uM FeCl3 medium by CLSI protocol based microdilution method; type: functional; conditions: Burkholderia thailandensis
[26] = test system: Burkholderia thailandensis; assay: Antibacterial activity against Burkholderia thailandensis E264TS32C12 under muller hinton medium by CLSI protocol based microdilution method; type: functional
[27] = test system: Burkholderia thailandensis; assay: Antibacterial activity against Burkholderia thailandensis E264TS32C10 under succinate minimum medium by CLSI protocol based microdilution method; type: functional
[28] = test system: Burkholderia pseudomallei; assay: Antibacterial activity against Burkholderia pseudomallei K96243 under succinate minimum medium by CLSI protocol based microdilution method; type: functional
[29] = test system: Burkholderia thailandensis; assay: Antibacterial activity against Burkholderia thailandensis E264 under succinate minimum medium by CLSI protocol based microdilution method; type: functional
[30] = test system: Burkholderia pseudomallei; assay: Antibacterial activity against Burkholderia pseudomallei BPS2020IRBA003 under 1 uM FeCl3 medium by CLSI protocol based microdilution method; type: functional
[31] = test system: Burkholderia pseudomallei; assay: Antibacterial activity against Burkholderia pseudomallei BPS2020IRBA005 under succinate minimum medium by CLSI protocol based microdilution method; type: functional
[32] = test system: Burkholderia pseudomallei; assay: Antibacterial activity against Burkholderia pseudomallei K96243 under muller hinton medium by CLSI protocol based microdilution method; type: functional
[33] = test system: Burkholderia thailandensis; assay: Antibacterial activity against Burkholderia thailandensis E264 under muller hinton medium by CLSI protocol based microdilution method; type: functional
[34] = test system: Burkholderia thailandensis; assay: Antibacterial activity against Burkholderia thailandensis E264TS32C12 under succinate minimum medium by CLSI protocol based microdilution method; type: functional
[35] = test system: Burkholderia pseudomallei; assay: Antibacterial activity against Burkholderia pseudomallei BPS2020IRBA003 under muller hinton medium by CLSI protocol based microdilution method; type: functional
[36] = test system: Burkholderia pseudomallei; assay: Antibacterial activity against Burkholderia pseudomallei BPS2020IRBA001 under 1 uM FeCl3 medium by CLSI protocol based microdilution method; type: functional
[37] = test system: Burkholderia pseudomallei; assay: Antibacterial activity against Burkholderia pseudomallei K96243 under 1 uM FeCl3 medium by CLSI protocol based microdilution method; type: functional
[38] = test system: Burkholderia pseudomallei; assay: Antibacterial activity against Burkholderia pseudomallei BPS2020IRBA002 under 1 uM FeCl3 medium by CLSI protocol based microdilution method; type: functional
[39] = test system: Burkholderia pseudomallei; assay: Antibacterial activity against Burkholderia pseudomallei BPS2020IRBA002 under muller hinton medium by CLSI protocol based microdilution method; type: functional
[40] = test system: Pseudomonas aeruginosa; assay: Antibacterial activity against Pseudomonas aeruginosa AM85 under 1 uM FeCl3 medium by CLSI protocol based microdilution method; type: functional
[41] = test system: Burkholderia pseudomallei; assay: Antibacterial activity against Burkholderia pseudomallei BPS2020IRBA005 under 1 uM FeCl3 medium after 48 hrs by CLSI protocol based microdilution method; type: functional
[42] = test system: HepG2; assay: Cytotoxicity against human HepG2 cells at 23 ug/ml after 48 hrs by CellTiter-Glo luminescent cell viability assay; type: toxicity, cell-based; conditions: hepg2, 48 h, dose 23 µg/ml

Compound | MIC [1] [mg/L] | MIC [3] [mg/L] | MIC [5] [mg/L] | MIC [6] [mg/L] | MIC [7] [mg/L] | MIC [9] [mg/L] | MIC [10] [mg/L] | MIC [12] [mg/L] | MIC [13] [mg/L] | MIC [14] [mg/L] | MIC [15] [mg/L] | MIC [16] [mg/L] | MIC [18] [mg/L] | MIC [19] [mg/L] | MIC [20] [mg/L] | MIC [21] [mg/L] | MIC [22] [mg/L] | MIC [23] [mg/L] | MIC [24] [mg/L] | MIC [26] [mg/L] | further results
CC(OC(=O)c1cc(=O)c(O)c[nH]1)OC(=O)N1CCN(c2cc3c(cc2F)c(=O)c(C(=O)O)cn3C2CC2)CC1 (stereo not given) | 1 (≈ 1.8 µM) | 64 (≈ 115 µM) | 4 (≈ 7.19 µM) | 8 (≈ 14.4 µM) | 8 (≈ 14.4 µM) | 32 (≈ 57.5 µM) | 16 (≈ 28.8 µM) | 0.25 (≈ 0.449 µM) | 0.25 (≈ 0.449 µM) | 8 (≈ 14.4 µM) | 2 (≈ 3.59 µM) | 32 (≈ 57.5 µM) | 8 (≈ 14.4 µM) | 0.25 (≈ 0.449 µM) | 2 (≈ 3.59 µM) | 4 (≈ 7.19 µM) | 128 (≈ 230 µM) | 32 (≈ 57.5 µM) | 32 (≈ 57.5 µM) | 16 (≈ 28.8 µM) | MIC [2]: 16 mg/L (≈ 28.8 µM); MIC [4]: 2 mg/L (≈ 3.59 µM); Activity [8]: 29.5 mN/meter; Activity [11]: Non-Toxic; half-life [17]: 168 h; MIC [25]: 2 mg/L (≈ 3.59 µM); MIC [27]: 32 mg/L (≈ 57.5 µM); MIC [28]: 1 mg/L (≈ 1.8 µM); MIC [29]: 4 mg/L (≈ 7.19 µM); MIC [30]: 4 mg/L (≈ 7.19 µM); MIC [31]: 1 mg/L (≈ 1.8 µM); MIC [32]: 1 mg/L (≈ 1.8 µM); MIC [33]: 4 mg/L (≈ 7.19 µM); MIC [34]: 16 mg/L (≈ 28.8 µM); MIC [35]: 2 mg/L (≈ 3.59 µM); MIC [36]: 32 mg/L (≈ 57.5 µM); MIC [37]: 1 mg/L (≈ 1.8 µM); MIC [38]: 16 mg/L (≈ 28.8 µM); MIC [39]: 16 mg/L (≈ 28.8 µM); MIC [40]: 64 mg/L (≈ 115 µM)
CC(C)(O/N=C(\C(=O)N[C@@H]1C(=O)N2C(C(=O)[O-])=C(C[n+]3ccccc3)CS[C@H]12)c1csc(N)n1)C(=O)O [CEFTAZIDIME] | 1 (≈ 1.83 µM) | 0.25 (≈ 0.457 µM) | 4 (≈ 7.32 µM) | 4 (≈ 7.32 µM) | 8 (≈ 14.6 µM) | 2 (≈ 3.66 µM) | 64 (≈ 117 µM) | 0.25 (≈ 0.457 µM) | 1 (≈ 1.83 µM) | 8 (≈ 14.6 µM) | 1 (≈ 1.83 µM) | 2 (≈ 3.66 µM) | 4 (≈ 7.32 µM) | 1 (≈ 1.83 µM) | 0.25 (≈ 0.457 µM) | 4 (≈ 7.32 µM) | 1 (≈ 1.83 µM) | 4 (≈ 7.32 µM) | 2 (≈ 3.66 µM) | 4 (≈ 7.32 µM) | MIC [27]: 2 mg/L (≈ 3.66 µM); MIC [28]: 8 mg/L (≈ 14.6 µM); MIC [29]: 4 mg/L (≈ 7.32 µM); MIC [31]: 8 mg/L (≈ 14.6 µM); MIC [33]: 4 mg/L (≈ 7.32 µM); MIC [34]: 8 mg/L (≈ 14.6 µM); MIC [35]: 2 mg/L (≈ 3.66 µM); MIC [37]: 8 mg/L (≈ 14.6 µM); MIC [38]: > 128 mg/L; MIC [41]: 8 mg/L (≈ 14.6 µM); MIC [39]: 128 mg/L (≈ 234 µM); MIC [40]: 4 mg/L (≈ 7.32 µM)
O=C(O)c1cn(C2CC2)c2cc(N3CCN(C(=O)c4ccc(O)c(O)c4)CC3)c(F)cc2c1=O | 8 (≈ 17.1 µM) | 128 (≈ 274 µM) | > 128 | > 128 | > 128 | 128 (≈ 274 µM) | > 128 | 8 (≈ 17.1 µM) | 8 (≈ 17.1 µM) | 128 (≈ 274 µM) | 8 (≈ 17.1 µM) | > 128 | > 128 | 8 (≈ 17.1 µM) | 8 (≈ 17.1 µM) | 128 (≈ 274 µM) | > 128 | > 128 | > 128 | > 128 | MIC [2]: > 128 mg/L; MIC [4]: 128 mg/L (≈ 274 µM); MIC [25]: > 128 mg/L; MIC [27]: > 128 mg/L; MIC [28]: 64 mg/L (≈ 137 µM); Activity [42]: Non-Toxic; MIC [29]: 64 mg/L (≈ 137 µM); MIC [30]: 128 mg/L (≈ 274 µM); MIC [31]: > 128 mg/L; MIC [32]: 64 mg/L (≈ 137 µM); MIC [33]: 128 mg/L (≈ 274 µM); MIC [34]: > 128 mg/L; MIC [35]: 128 mg/L (≈ 274 µM); MIC [36]: 128 mg/L (≈ 274 µM); MIC [37]: 64 mg/L (≈ 137 µM); MIC [38]: > 128 mg/L; MIC [39]: > 128 mg/L; MIC [40]: > 128 mg/L
